Test results from US20130317037A1, “METHOD OF ADMINISTRATION AND TREATMENT” (GlaxoSmithKline Intellectual Property Development Limited, priority 2010, published 2013).

How the values were obtained:
Format in all cases: cell-based
MDAMB157 = assay: cells
Description: (§1) From the stock concentration, 8 serial dilutions (1:5) were made with DMSO.
(§2) Day −1: Plate cells in 100 μl volume in 96 well plate. • Note: Cell number seeded adjusted for growth characteristics, so that at time of assay for proliferation following three-day drug treatment, the control wells should still be in log-growth phase (sub-confluent). Day 0: Drug added to plate for treatment. • A time 0 plate was processed for the proliferation assay to establish a baseline reading at time when drug was added.
(§3) LBNL are following the protocols set up by the NCI/NIH DTP Human Tumor Cell Line Screen Process (http://dtp.nci.nih.gov/branches/btb/ivclsp.html) and summarized below.
(§4) [(Ti−Tz)/(C−Tz)]×100 for concentrations for which Ti>/=Tz
(§5) [(Ti−Tz)/(C−Tz)]×100=50, • which is the drug concentration resulting in a 50% reduction in the net growth in control cells during the drug incubation. TGI: Total growth inhibition is calculated from
(§6) Ti=Tz. • The drug concentration resulting in total growth inhibition (down to the ‘time 0’ baseline). LC50: Net loss of cell growth at 50% is calculated from
(§7) [(Ti−Tz)/Tz]×100=−50. • The concentration of drug resulting in a 50% reduction in the cell number at the end of the drug treatment as compared to that at the beginning (time 0) indicating a net loss of cells following treatment.
(§8) Values are calculated for each of these three parameters if the level of activity is reached; however, if the effect is not reached or is exceeded, the value for that parameter is expressed as greater or less than the maximum or minimum concentration tested.

HCC1806 = assay: cells
Description: as §1, §2, §3, §4, §5, §6, §7, §8

MCF10F = assay: cells
Description: as §1, §2, §3, §4, §5, §6, §7, §8

MDAMB415 = assay: cells
Description: as §1, §2, §3, §4, §5, §6, §7, §8

MDAMB436L = assay: cells
Description: as §1, §2, §3, §4, §5, §6, §7, §8

HCC1428 = assay: cells
Description: as §1, §2, §3, §4, §5, §6, §7, §8

184A1 = assay: in vitro
Description: as §1, §2, §3, §4, §5, §6, §7, §8

MCF7 = assay: cells
Description: as §1, §2, §3, §4, §5, §6, §7, §8

HCC38 = assay: cells
Description: as §1, §2, §3, §4, §5, §6, §7, §8

SUM229PE = assay: cells
Description: as §1, §2, §3, §4, §5, §6, §7, §8

UACC893D = assay: cells
Description: as §1, §2, §3, §4, §5, §6, §7, §8

BT20 = assay: cells
Description: as §1, §2, §3, §4, §5, §6, §7, §8

MCF12A = assay: cells
Description: as §1, §2, §3, §4, §5, §6, §7, §8

SUM149PT = assay: cells
Description: as §1, §2, §3, §4, §5, §6, §7, §8

HCC1954 = assay: cells
Description: as §1, §2, §3, §4, §5, §6, §7, §8

SUM225CWN = assay: cells
Description: as §1, §2, §3, §4, §5, §6, §7, §8

BT483 = assay: cells
Description: as §1, §2, §3, §4, §5, §6, §7, §8

SKBR3 = assay: cells
Description: as §1, §2, §3, §4, §5, §6, §7, §8

HCC2185 = assay: cells
Description: as §1, §2, §3, §4, §5, §6, §7, §8

HCC70 = assay: cells
Description: as §1, §2, §3, §4, §5, §6, §7, §8

CAMA1 = assay: cells
Description: as §1, §2, §3, §4, §5, §6, §7, §8

ZR751 = assay: cells
Description: as §1, §2, §3, §4, §5, §6, §7, §8

UACC812 = assay: cells
Description: as §1, §2, §3, §4, §5, §6, §7, §8

[1] = Homo sapiens, 50% net loss of cells vs time 0, read-out: LC50 (the source's name)
[2] = Homo sapiens, 72 h, three-day drug treatment, read-out: gIC50

With `COc1ncc(-c2ccc3nccc(-c4ccnnc4)c3c2)cc1NS(=O)(=O)c1ccc(F)cc1F` [Compound B, 2,4-difluoro-N-{2-(methyloxy)-5-[4-(4-pyridazinyl)-6-quinolinyl]-3-pyridinyl}benzenesulfonamide] the IC50 (MDAMB157; Homo sapiens, MDA-MB-157, 72 h, MDAMB157, three-day drug treatment, read-out: gIC50) was 398 nM, the CC50 (MDAMB157; Homo sapiens, MDA-MB-157, MDAMB157, 50% net loss of cells vs time 0, read-out: LC50 (the source's name)) was > 33000 nM and the TGI (MDAMB157; MDAMB157, total growth inhibition) was 3981.1 nM. It also gave a TGI (HCC1806; HCC1806, total growth inhibition) of 375.1 nM, an IC50 (HCC1806; Homo sapiens, 72 h, HCC1806, three-day drug treatment, read-out: gIC50) of 26.2 nM and a CC50 (HCC1806; Homo sapiens, HCC1806, 50% net loss of cells vs time 0, read-out: LC50 (the source's name)) of 2820 nM. The IC50 (MCF10F; Homo sapiens, MCF-10F, 72 h, three-day drug treatment, read-out: gIC50) was 2.4 nM, the TGI (MCF10F; total growth inhibition) was 14.3 nM and the IC50 (MDAMB415; Homo sapiens, MDA-MB-415, 72 h, MDAMB415, three-day drug treatment, read-out: gIC50) was 20.8 nM. For the same molecule, the CC50 (MDAMB415; Homo sapiens, MDA-MB-415, MDAMB415, 50% net loss of cells vs time 0, read-out: LC50 (the source's name)) was 528 nM, the TGI (MDAMB415; MDAMB415, total growth inhibition) was 117.7 nM and the CC50 (MDAMB436L; [1]) was > 33000 nM. For the same molecule, the IC50 (MDAMB436L; [2]) was 13.2 nM, the TGI (MDAMB436L; total growth inhibition) was >33000.0 nM and the TGI (HCC1428; HCC1428, total growth inhibition) was 158.5 nM. For the same molecule, the IC50 (HCC1428; Homo sapiens, 72 h, HCC1428, three-day drug treatment, read-out: gIC50) was 16.2 nM, the CC50 (HCC1428; Homo sapiens, HCC1428, 50% net loss of cells vs time 0, read-out: LC50 (the source's name)) was 5250 nM and the TGI (184A1; 184A1, total growth inhibition) was 16.3 nM. For the same molecule, the IC50 (184A1; Homo sapiens, 72 h, 184A1, three-day drug treatment, read-out: gIC50) was 1.6 nM, the IC50 (MCF7; Homo sapiens, 72 h, MCF7, three-day drug treatment, read-out: gIC50) was 7.3 nM and the CC50 (MCF7; Homo sapiens, MCF7, 50% net loss of cells vs time 0, read-out: LC50 (the source's name)) was 149 nM. For the same molecule, the TGI (MCF7; MCF7, total growth inhibition) was 22.0 nM, the TGI (HCC38; HCC38, total growth inhibition) was 158.5 nM and the IC50 (HCC38; Homo sapiens, 72 h, HCC38, three-day drug treatment, read-out: gIC50) was 55 nM. For the same molecule, the CC50 (HCC38; Homo sapiens, HCC38, 50% net loss of cells vs time 0, read-out: LC50 (the source's name)) was 355 nM, the CC50 (SUM229PE; [1]) was 126 nM and the IC50 (SUM229PE; [2]) was 2.5 nM. The TGI (SUM229PE; total growth inhibition) was 17.4 nM, the IC50 (UACC893D; [2]) was 8.8 nM and the TGI (UACC893D; total growth inhibition) was 20.1 nM. The TGI (BT20; BT20, total growth inhibition) was 95.5 nM, the IC50 (BT20; Homo sapiens, BT-20, 72 h, BT20, three-day drug treatment, read-out: gIC50) was 14.8 nM and the CC50 (BT20; Homo sapiens, BT-20, BT20, 50% net loss of cells vs time 0, read-out: LC50 (the source's name)) was 468 nM. The IC50 (MCF12A; Homo sapiens, MCF-12A, 72 h, three-day drug treatment, read-out: gIC50) was 7.4 nM, the TGI (MCF12A; total growth inhibition) was 178.5 nM and the CC50 (SUM149PT; [1]) was 2600 nM. For the same molecule, the IC50 (SUM149PT; [2]) was 20.6 nM, the TGI (SUM149PT; total growth inhibition) was 862.2 nM and the TGI (HCC1954; HCC1954, total growth inhibition) was 32.3 nM. For the same molecule, the IC50 (HCC1954; Homo sapiens, 72 h, HCC1954, three-day drug treatment, read-out: gIC50) was 14.3 nM, the CC50 (HCC1954; Homo sapiens, HCC1954, 50% net loss of cells vs time 0, read-out: LC50 (the source's name)) was 54.2 nM and the CC50 (SUM225CWN; [1]) was 436 nM. It also gave an IC50 (SUM225CWN; [2]) of 1.6 nM, a TGI (SUM225CWN; total growth inhibition) of 14.8 nM and a TGI (BT483; BT483, total growth inhibition) of 8.5 nM. For the same molecule, the IC50 (BT483; Homo sapiens, BT-483, 72 h, BT483, three-day drug treatment, read-out: gIC50) was 1.5 nM, the CC50 (BT483; Homo sapiens, BT-483, BT483, 50% net loss of cells vs time 0, read-out: LC50 (the source's name)) was 1170 nM and the IC50 (SKBR3; Homo sapiens, SK-BR-3, 72 h, SKBR3, three-day drug treatment, read-out: gIC50) was 3.2 nM. The TGI (SKBR3; SKBR3, total growth inhibition) was 199.5 nM, the TGI (HCC2185; HCC2185, total growth inhibition) was 10.0 nM and the IC50 (HCC2185; Homo sapiens, 72 h, HCC2185, three-day drug treatment, read-out: gIC50) was 3.2 nM. The CC50 (HCC2185; Homo sapiens, HCC2185, 50% net loss of cells vs time 0, read-out: LC50 (the source's name)) was 132 nM, the TGI (HCC70; HCC70, total growth inhibition) was 26.8 nM and the IC50 (HCC70; Homo sapiens, 72 h, HCC70, three-day drug treatment, read-out: gIC50) was 4.9 nM. It also gave a CC50 (HCC70; Homo sapiens, HCC70, 50% net loss of cells vs time 0, read-out: LC50 (the source's name)) of 118 nM, a TGI (CAMA1; CAMA1, total growth inhibition) of 239.9 nM and an IC50 (CAMA1; Homo sapiens, CAMA-1, 72 h, CAMA1, three-day drug treatment, read-out: gIC50) of 89.1 nM. For the same molecule, the CC50 (CAMA1; Homo sapiens, CAMA-1, CAMA1, 50% net loss of cells vs time 0, read-out: LC50 (the source's name)) was 537 nM, the IC50 (ZR751; Homo sapiens, ZR-75-1, 72 h, ZR751, three-day drug treatment, read-out: gIC50) was 10.5 nM and the CC50 (ZR751; Homo sapiens, ZR-75-1, ZR751, 50% net loss of cells vs time 0, read-out: LC50 (the source's name)) was 248 nM. For the same molecule, the TGI (ZR751; ZR751, total growth inhibition) was 30.2 nM, the IC50 (UACC812; Homo sapiens, UACC-812, 72 h, UACC812, three-day drug treatment, read-out: gIC50) was 4.9 nM and the TGI (UACC812; UACC812, total growth inhibition) was 24.0 nM.
